# Laboratory results from patent publication US9908912B2, “Triclosan derivatives and uses thereof” (priority 2012, dated 2018).
# Assays:
# [1] = tested on: Kleb. pneumoniae ATCC 10031; assay: MIC in Nutrient Broth No. 2; format: cell-based, Klebsiella pneumoniae; conditions: Nutrient Broth No. 2
# Experimental: (§1) Bacteria species as indicated in Table 1 were incubated for approximately 24 hours at 37° C.
# (§2) The tests were repeated with the addition of inducers. Methyl glycoside was the main inducer used, but other suitable inducers include isopropyl-β-D-thiogalactopyranoside, p-nitrophenyl-α-L-arabinopyranoside and p-nitrophenyl-β-D-xylopyranoside. Concentration of inducer in all cases was 100 μg/ml.
# Ent. cloacae = assay: MIC in Nutrient Agar; format: cell-based, Enterobacter cloacae; conditions: Nutrient Agar containing 0.1 μg/ml of inducer; 37° C., 24 hours
# Experimental: (§3) The triclosan-glycosides were added to Nutrient Agar (Oxoid CM0003; Thermofisher Scientific) and organisms were transferred onto the plates surface using a multi-point inoculation device (Oxoid Cathra, Thermofisher Scientific). The latter is essentially a metal plate containing a number of needles. Each needle tip (usually 36 per plate) dips into an organism suspension (in phosphate buffered saline; PBS) and the needles are then moved over the agar plate and lowered onto its surface. In this way the growth of colonies of up to 36 different organisms can be observed on one plate.
# (§4) Nutrient Agar No. 2 was prepared according to the manufacturers instructions, autoclaved and cooled to 50° C. Test compounds were then added as filter sterilised solutions (50:50 deionised water:ethanol), to give final concentrations from 256 μg/ml to 0 μg/ml in doubling dilutions. […] The mixtures were swirled then four plates (25 ml molten agar) were poured for each concentration. Plates were dried in a laminar flow cabinet then inoculated with overnight cultures of organisms that had been decimally diluted twice in sterile saline solution (approximately 10^7 cfu/ml) using a multi-point inoculator. Plates were then incubated at 37° C. for 24 hours. MICs were determined as the concentration at which no growth was observed.
# [2] = tested on: Strep. pneumoniae ATCC 6305; assay: MIC in Nutrient Broth No. 2; format: cell-based, Streptococcus pneumoniae; conditions: Nutrient Broth No. 2
# Experimental: as §1, §2
# Bacillus subtilis = assay: MIC in Nutrient Agar; format: cell-based; conditions: Nutrient Agar containing 0.1 μg/ml of inducer; 37° C., 24 hours
# Experimental: as §3, §4
# Hafnia alvei = assay: MIC in Nutrient Agar; format: cell-based; conditions: Nutrient Agar containing 0.1 μg/ml of inducer; 37° C., 24 hours
# Experimental: as §3, §4
# Bacillus cereus = assay: MIC in Nutrient Agar; format: cell-based; conditions: Nutrient Agar containing 0.1 μg/ml of inducer; 37° C., 24 hours
# Experimental: as §3, §4
# Ps. aeruginosa = assay: MIC in Nutrient Agar; format: cell-based; conditions: Nutrient Agar containing 0.1 μg/ml of inducer; 37° C., 24 hours
# Experimental: as §3, §4
# S. aureus = assay: MIC in Nutrient Agar; format: cell-based, Staphylococcus aureus; conditions: 8 strains; Nutrient Agar containing 0.1 μg/ml of inducer; 37° C., 24 hours
# Experimental: as §3, §4
# S. saprophyticus = assay: MIC in Nutrient Agar; format: cell-based, Staphylococcus saprophyticus; conditions: Nutrient Agar containing 0.1 μg/ml of inducer; 37° C., 24 hours
# Experimental: as §3, §4
# Strep. viridans OCC 234 = assay: MIC in Nutrient Broth No. 2; format: cell-based, Streptococcus viridans; conditions: Nutrient Broth No. 2
# Experimental: as §1, §2
# E. hermanii ATCC 33650 = assay: MIC in Nutrient Broth No. 2; format: cell-based, Escherichia hermanii; conditions: Nutrient Broth No. 2
# Experimental: as §1, §2
# Str. pyogenes = assay: MIC in Nutrient Agar; format: cell-based, Streptococcus pyogenes; conditions: Nutrient Agar containing 0.1 μg/ml of inducer; 37° C., 24 hours
# Experimental: as §3, §4
# Staph. epidermidis = assay: MIC in Nutrient Broth No. 2; format: cell-based, Staphylococcus epidermidis; conditions: 3 strains, Nutrient Broth No. 2
# Experimental: as §1, §2
# E. coli = assay: MIC in Nutrient Agar; format: cell-based, Escherichia coli; conditions: 8 strains; Nutrient Agar containing 0.1 μg/ml of inducer; 37° C., 24 hours
# Experimental: as §3, §4
# Str. pneumoniae = assay: MIC in Nutrient Agar; format: cell-based, Streptococcus pneumoniae; conditions: Nutrient Agar containing 0.1 μg/ml of inducer; 37° C., 24 hours
# Experimental: as §3, §4
# Ent. faecalis = assay: MIC in Nutrient Agar; format: cell-based, Enterococcus faecalis; conditions: Nutrient Agar containing 0.1 μg/ml of inducer; 37° C., 24 hours
# Experimental: as §3, §4
# S. epidermidis = assay: MIC in Nutrient Agar; format: cell-based, Staphylococcus epidermidis; conditions: 3 strains; Nutrient Agar containing 0.1 μg/ml of inducer; 37° C., 24 hours
# Experimental: as §3, §4
# Str. agalactiae = assay: MIC in Nutrient Agar; format: cell-based, Streptococcus agalactiae; conditions: Nutrient Agar containing 0.1 μg/ml of inducer; 37° C., 24 hours
# Experimental: as §3, §4
# Ent. aerogenes = assay: MIC in Nutrient Agar; format: cell-based, Enterobacter aerogenes; conditions: Nutrient Agar containing 0.1 μg/ml of inducer; 37° C., 24 hours
# Experimental: as §3, §4
# Cr. sakazakii = assay: MIC in Nutrient Agar; format: cell-based, Cronobacter sakazakii; conditions: Nutrient Agar containing 0.1 μg/ml of inducer; 37° C., 24 hours
# Experimental: as §3, §4
# [3] = tested on: Staph. haemolyticus OCC 2223; assay: MIC in Nutrient Broth No. 2; format: cell-based, Staphylococcus haemolyticus; conditions: Nutrient Broth No. 2
# Experimental: as §1, §2
# [4] = tested on: Strep. pyogenes ATCC 19615; assay: MIC in Nutrient Broth No. 2; format: cell-based, Streptococcus pyogenes; conditions: Nutrient Broth No. 2
# Experimental: as §1, §2
# [5] = tested on: Strep. agalactiae OCC 182; assay: MIC in Nutrient Broth No. 2; format: cell-based, Streptococcus agalactiae; conditions: Nutrient Broth No. 2
# Experimental: as §1, §2
# [6] = tested on: Staph. saprophyticus ATCC 15305; assay: MIC in Nutrient Broth No. 2; format: cell-based, Staphylococcus saprophyticus; conditions: Nutrient Broth No. 2
# Experimental: as §1, §2
# Ser. marcescens = assay: MIC in Nutrient Agar; format: cell-based, Serratia marcescens; conditions: Nutrient Agar containing 0.1 μg/ml of inducer; 37° C., 24 hours
# Experimental: as §3, §4
# E. hermanii = assay: MIC in Nutrient Agar; format: cell-based, Escherichia hermanii; conditions: Nutrient Agar containing 0.1 μg/ml of inducer; 37° C., 24 hours
# Experimental: as §3, §4
# Str. viridans = assay: MIC in Nutrient Agar; format: cell-based, Streptococcus viridans; conditions: Nutrient Agar containing 0.1 μg/ml of inducer; 37° C., 24 hours
# Experimental: as §3, §4
# [7] = tested on: Kleb. aerogenes NCTC 88167; assay: MIC in Nutrient Broth No. 2; format: cell-based, Klebsiella aerogenes; conditions: Nutrient Broth No. 2
# Experimental: as §1, §2
# Staph. aureus = assay: MIC in Nutrient Broth No. 2; format: cell-based, Staphylococcus aureus; conditions: 8 strains, Nutrient Broth No. 2
# Experimental: as §1, §2
# Ent. faecium = assay: MIC in Nutrient Agar; format: cell-based, Enterococcus faecium; conditions: Nutrient Agar containing 0.1 μg/ml of inducer; 37° C., 24 hours
# Experimental: as §3, §4
# Kleb. aerogenes = assay: MIC in Nutrient Agar; format: cell-based, Klebsiella aerogenes; conditions: Nutrient Agar containing 0.1 μg/ml of inducer; 37° C., 24 hours
# Experimental: as §3, §4
# [8] = tested on: Crono. sakazakii ATCC 29544; assay: MIC in Nutrient Broth No. 2; format: cell-based, Cronobacter sakazakii; conditions: Nutrient Broth No. 2
# Experimental: as §1, §2
# Salmonella = assay: MIC in Nutrient Agar; format: cell-based; conditions: 11 strains; Nutrient Agar containing 0.1 μg/ml of inducer; 37° C., 24 hours
# Experimental: as §3, §4
smiles,measurement,setting,value
"OC[C@H]1O[C@H](Oc2cc(Cl)ccc2Oc2ccc(Cl)cc2Cl)[C@H](O)[C@@H](O)[C@H]1O [α-D-Galactoside, triclosan-α-D-galactopyranoside]",MIC,[1]; with inducer 100 μg/ml,1 µg/mL
same,MIC,[1]; without inducer,1 µg/mL
same,MIC,Ent. cloacae,32 µg/mL
same,MIC,[2]; with inducer 100 μg/ml,256 µg/mL
same,MIC,[2]; without inducer,128 µg/mL
same,MIC,Bacillus subtilis,128 µg/mL
same,MIC,Hafnia alvei,4 µg/mL
same,MIC,Bacillus cereus,>256 µg/mL
same,MIC,Ps. aeruginosa,>256 µg/mL
same,MIC,S. aureus,4 to 8 µg/mL
same,MIC,S. saprophyticus,32 µg/mL
same,MIC,Strep. viridans OCC 234; with inducer 100 μg/ml,>256 µg/mL
same,MIC,Strep. viridans OCC 234; without inducer,>256 µg/mL
same,MIC,E. hermanii ATCC 33650; with inducer 100 μg/ml,32 µg/mL
same,MIC,E. hermanii ATCC 33650; without inducer,32 µg/mL
same,MIC,Str. pyogenes,>256 µg/mL
same,MIC,Staph. epidermidis; with inducer 100 μg/ml,4 to 256 µg/mL
same,MIC,Staph. epidermidis; without inducer,8 to 32 µg/mL
same,MIC,E. coli,8 to 32 µg/mL
same,MIC,Str. pneumoniae,256 µg/mL
same,MIC,Ent. faecalis,>256 µg/mL
same,MIC,S. epidermidis,8 µg/mL
same,MIC,Str. agalactiae,>256 µg/mL
same,MIC,Ent. aerogenes,64 µg/mL
same,MIC,Cr. sakazakii,32 µg/mL
same,MIC,[3]; with inducer 100 μg/ml,32 µg/mL
same,MIC,[3]; without inducer,16 µg/mL
same,MIC,[4]; with inducer 100 μg/ml,256 µg/mL
same,MIC,[4]; without inducer,256 µg/mL
same,MIC,[5]; with inducer 100 μg/ml,>256 µg/mL
same,MIC,[5]; without inducer,>256 µg/mL
same,MIC,[6]; with inducer 100 μg/ml,64 µg/mL
same,MIC,[6]; without inducer,64 µg/mL
same,MIC,Ser. marcescens,>256 µg/mL
same,MIC,E. hermanii,32 µg/mL
same,MIC,Str. viridans,>256 µg/mL
same,MIC,[7]; with inducer 100 μg/ml,64 µg/mL
same,MIC,[7]; without inducer,32 µg/mL
same,MIC,Staph. aureus; with inducer 100 μg/ml,8 to 16 µg/mL
same,MIC,Staph. aureus; without inducer,8 to 16 µg/mL
same,MIC,Ent. faecium,>256 µg/mL
same,MIC,Kleb. aerogenes,32 µg/mL
same,MIC,[8]; with inducer 100 μg/ml,64 µg/mL
same,MIC,[8]; without inducer,128 µg/mL
"OC[C@H]1O[C@H](Oc2cc(Cl)ccc2Oc2ccc(Cl)cc2Cl)[C@H](O)[C@@H](O)[C@@H]1O [α-D-Glucoside, triclosan-α-D-glucopyranoside]",MIC,[1]; with inducer 100 μg/ml,1 µg/mL
same,MIC,[1]; without inducer,1 µg/mL
same,MIC,Ent. cloacae,1 µg/mL
same,MIC,[2]; with inducer 100 μg/ml,16 µg/mL
same,MIC,[2]; without inducer,32 µg/mL
same,MIC,Bacillus subtilis,16 µg/mL
same,MIC,Hafnia alvei,0.5 µg/mL
same,MIC,Salmonella,1 to 4 µg/mL
same,MIC,Bacillus cereus,64 µg/mL
same,MIC,Ps. aeruginosa,>256 µg/mL
same,MIC,S. aureus,0.25 to 1 µg/mL
same,MIC,S. saprophyticus,4 µg/mL
same,MIC,Strep. viridans OCC 234; with inducer 100 μg/ml,64 µg/mL
same,MIC,Strep. viridans OCC 234; without inducer,128 µg/mL
same,MIC,E. hermanii ATCC 33650; with inducer 100 μg/ml,1 µg/mL
same,MIC,E. hermanii ATCC 33650; without inducer,1 µg/mL
same,MIC,Str. pyogenes,64 µg/mL
same,MIC,Staph. epidermidis; with inducer 100 μg/ml,1 µg/mL
same,MIC,Staph. epidermidis; without inducer,1 µg/mL
same,MIC,E. coli,0.5 to 4 µg/mL
same,MIC,Str. pneumoniae,32 µg/mL
same,MIC,Ent. faecalis,128 µg/mL
same,MIC,S. epidermidis,0.5 to 1 µg/mL
same,MIC,Str. agalactiae,128 µg/mL
same,MIC,Ent. aerogenes,4 µg/mL
same,MIC,Cr. sakazakii,4 µg/mL
same,MIC,[3]; with inducer 100 μg/ml,1 µg/mL
same,MIC,[3]; without inducer,1 µg/mL
same,MIC,[4]; with inducer 100 μg/ml,16 µg/mL
same,MIC,[4]; without inducer,32 µg/mL
same,MIC,[5]; with inducer 100 μg/ml,128 µg/mL
same,MIC,[5]; without inducer,128 µg/mL
same,MIC,[6]; with inducer 100 μg/ml,4 µg/mL
same,MIC,[6]; without inducer,4 µg/mL
same,MIC,Ser. marcescens,>256 µg/mL
same,MIC,E. hermanii,1 µg/mL
same,MIC,Str. viridans,64 µg/mL
same,MIC,[7]; with inducer 100 μg/ml,4 µg/mL
same,MIC,[7]; without inducer,2 µg/mL
same,MIC,Staph. aureus; with inducer 100 μg/ml,1 µg/mL
same,MIC,Staph. aureus; without inducer,1 µg/mL
same,MIC,Ent. faecium,128 µg/mL
same,MIC,Kleb. aerogenes,2 µg/mL
same,MIC,[8]; with inducer 100 μg/ml,4 µg/mL
same,MIC,[8]; without inducer,8 µg/mL
